# Assay results taken from PMC8270301, “Novel Facet of an Old Dietary Molecule? Direct Influence of Caffeine on Glucose and Biogenic Amine Handling by Human Adipocytes” (Molecules, 2021).
# Assays:
# [1] = target: T1, primary amine oxidase (SSAO/PrAO/VAP-1) (Homo sapiens, UniProt Q16853); assay: Amplex Red hydrogen peroxide assay of benzylamine oxidation in tissue homogenate, Lineweaver-Burk analysis; assay type: biochemical
# T1 construct: gene AOC3; native enzyme in homogenates of human subcutaneous adipose tissue
# T1 sequence (Q16853 1-763): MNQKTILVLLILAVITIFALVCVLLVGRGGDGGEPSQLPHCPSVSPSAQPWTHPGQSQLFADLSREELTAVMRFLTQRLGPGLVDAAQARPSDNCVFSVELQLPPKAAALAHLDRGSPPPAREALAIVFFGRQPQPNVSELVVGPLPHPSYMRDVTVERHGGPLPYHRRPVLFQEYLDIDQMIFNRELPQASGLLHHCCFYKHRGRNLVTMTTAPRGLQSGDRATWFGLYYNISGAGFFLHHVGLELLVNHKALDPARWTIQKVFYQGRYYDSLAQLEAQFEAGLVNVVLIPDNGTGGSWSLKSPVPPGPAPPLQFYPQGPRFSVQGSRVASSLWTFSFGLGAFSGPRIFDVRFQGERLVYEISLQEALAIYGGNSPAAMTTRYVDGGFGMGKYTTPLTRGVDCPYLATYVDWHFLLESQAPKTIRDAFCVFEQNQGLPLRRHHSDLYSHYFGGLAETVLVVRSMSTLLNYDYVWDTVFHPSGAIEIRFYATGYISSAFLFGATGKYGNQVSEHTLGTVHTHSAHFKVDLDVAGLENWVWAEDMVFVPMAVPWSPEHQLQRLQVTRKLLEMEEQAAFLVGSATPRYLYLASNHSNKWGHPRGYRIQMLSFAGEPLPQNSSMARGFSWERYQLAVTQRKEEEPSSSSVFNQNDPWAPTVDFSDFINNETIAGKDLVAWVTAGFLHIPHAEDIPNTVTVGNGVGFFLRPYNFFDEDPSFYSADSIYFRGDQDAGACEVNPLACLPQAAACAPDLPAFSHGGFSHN
# [2] = target: T1, primary amine oxidase (SSAO/PrAO/VAP-1); assay: Amplex Red hydrogen peroxide release in tissue homogenate, Lineweaver-Burk plot; assay type: cell-based
Compound,Ki [1] [µM],"Amplex Red hydrogen peroxide release in tissue homogenate, Lineweaver-Burk plot [2]"
"Cn1c(=O)c2c(ncn2C)n(C)c1=O [caffeine, 1,3,7-trimethylxanthine]",880,
NCc1ccccc1 [benzylamine],,Lineweaver–Burk plot of the inhibition of benzylamine oxidation by increasing doses of caffeine
